From patent US5998437A, “Benzimidazole derivatives” (Otsuka Pharmaceutical Co., Ltd., priority 1995, dated 1999)

How the values were obtained:
cGMP-PDE = molecular target: T1, cGMP-PDE (Homo sapiens, UniProt O76074); test: Activity for inhibiting cGMP PDE (PDE partially purified from human platelets, FI fraction); type: biochemical; details: 0.4 μM of [3H]-cGMP
T1 construct: Separation and partial purification of PDE (phosphodiesterase) from human platelets; from tissue; host or cells: human platelets (supernatant, DEAE-cellulose FI fraction)
Method: (1) Measurement of the Activity for Inhibiting cGMP PDE
Separation and partial purification of PDE (phosphodiesterase) from human platelets, and measurement of the activity for inhibiting cGMP PDE were conducted by the method of Hidaka, et al. [Biochimica et Biophysica Acta, Vol. 429, (1976), pp. 485-497]. The platelets obtained from human healthy adult were washed, and suspended in TRIS-buffer solution, then said suspension was treated by centrifugal separation, the supernatant was subjected to a DEAE-cellulose treatment and fractionated into FI to FIII fractions by a method of concentration gradient of sodium acetate. Thus obtained FI fraction was used as the sample of cGMP-PDE. The activity for inhibiting cGMP-PDE was measured by using 0.4 μM of [^3 H]-cGMP.

TPA induced inflammation = test: Activity for inhibiting TPA induced inflammation (ear pinna); type: in vivo, ICR strain female mouse; details: 1% solution, 20 μl on ear pinna 30 minutes before TPA; 4 hours after TPA coating
Method: (6) Determination of the Activity for Inhibiting TPA Induced Inflammation
Test was conducted by the modified method of Carlson, et al. [Agents Actions, Vol. 26, (1989), page 319]. Thus, to the ear pinna of ICR strain female mouse, 20 μl of acetone solution of 12-O-tetradecanoylphorbol-13-acetate (TPA) in the concentration of 200 μg/ml was coated to induce inflammation. The thickness of ear pinna of 4 hours after the TPA coating was measured, and difference of the last value was defined as the ear pinna inflammation. Test compound was dissolved in acetone-methanol (4:1 by v/v) to make the concentration of 1%. 20 μl of test compound solution was coated on the ear pinna 30 minutes before the TPA coating. By using compound of Example 3 as test compound, the inflammation was inhibited at the rate of 66%.

[1] = tested on: chronic contactive dermatitis; test: Activity for inhibiting chronic contactive dermatitis (TNCB, ear pinna); type: in vivo, Balb/c strain male mouse; details: for Thickness of ear pinna (×10 μm): control 137.1 ± 6.2, 8 animals; for Inhibition rate (%): ear pinna thickness
Method: (5) Determination of the Activity for Inhibiting Chronic Contactive Dermatitis
The activity for inhibiting chronic contactive dermatitis [J. Dermatol. Sci., Vol. 8, (1994), page 54] which is analogous to atopic dermatitis being reported by Kitagaki, et al. was discussed by using the method as follows. The right-side ear pinna of Balb/c strain male mouse was subjected to antigen sensitization by coating with 20 μl of acetone solution of 1% trinitrochlorobenzene (TNCB). 7 Days after the antigen sensitization, the same right-side pinna was subjected to antigen induction by coating with 20 μl of 1% TNCB acetone solution. The treatment of antigen induction was repeated in every 2 days so as to induced chronic contactive dermatitis. In this test, increase of thickness of the right-side ear pinna was induced by passing into a chronic state of the contactive dermatitis. The test compound was dissolved in acetone-methanol (4:1 by v/v) and 20 μl of this solution was administered by coating on the right-side of ear pinna once a day from 24th day after the antigen induction for 2 weeks. As to the control, the only the solvent was similarly administered. The antigen induction by the test compound during administration period was conducted at 30 minutes before the administration. The thickness of the ear pinna of 14th day after the administration was measured by a dial thickness gauge.

rat A10 cells = test: Activity for inhibiting proliferation of rat A10 cells ([3H]-thymidine uptake); type: cell-based; details: A10, 1% FBS stimulation, 24 hours, read-out: Activity for inhibiting proliferation of rat A10 cells [IC50 (μM)]
Method: (2) Measurement of the Activity for Inhibiting Proliferation of Rat A10 Cells
Test was conducted by the modified method of N. Morisaki [Atherosclerosis, Vol. 71, (1988), pp. 165-171]. The rat A10 cells (purchased from Dainippon Pharmaceutical Co., Ltd.) were inoculated on a 24 wells immunoplate at a density of 10,000 cells/well, and were cultured in 10% FBS (fetal bovine serum) for 2 days, and in order to introduce the cells into the resting stage, the cells were further cultured in a serum-free medium for 2 days. After that, 1% FBS was added thereto for stimulating the proliferation, of the cells and at the same time, a test compound and 0.5 μCi/well of [^3 H]-thymidine were added. As to the index of synthesized amount of DNA, the quantity of [^3 H]-thymidine being uptaken by the cells was measured at the time of 24 hours after the final cultivation was started.

T cells = test: Activity for inhibiting proliferation of the T cells (mouse spleen cells, Concanavaline A); type: cell-based, Balb/c strain male mouse; details: T-cell, 2 days, then [3H] thymidine overnight
Method: (4) Measurement of the Activity for Inhibiting Proliferation of the T Cells
Test was conducted by the method as disclosed in "Current Protocol in Immunology" [Edited by Coligan, et al., (1991)] Chapter 3, page 12 (Published from Willy Interscience, Inc.). After sacrificed a Balb/c strain male mouse, the spleen was enucleated and a suspension of the spleen cells in RPMI-1640 culture medium was prepared. Said suspension was filtered through a nylon fiber mesh, and subjected to a centrifugal separation (1,200 rpm, for 5 minutes), there were added on pellet 5 ml of 0.15 M ammonium chloride, 10 mM potassium hydrogencarbonate, and 0.1 mM disodium salt of EDTA (pH 7.2) per one spleen so as to suspend the cells, and the suspension was incubated at 37° C. for 5 minutes. […] After counted the number of cells by using a hemacytometer, a suspension containing cell density of 10^6 /ml was prepared by diluting with RPMI-10 culture medium. […]
20 μCi/ml of [methyl-^3 H] thymidine was added in an amount of 10 μl/well, after further incubated overnight, by using a cell harvester the cells were recovered on the filter of the harvester. The filter was cut out from the cell harvester and put in a vial, then 5 ml of a scintillation cocktail (ACS-II) was added, and measured by using a liquid scintillation counter. […]

[2] = 0.1% coated once a day for 2 weeks

O=C(Nc1ccc2c(ccn2CCCn2ccnc2)c1)c1nc2ccc(Cl)cc2n1Cc1ccccc1 [Example 3, 1-benzyl-6-chloro-2-{1-[3-(imidazol-1-yl)propyl]indol-5-ylamino-carbonyl}benzimidazole]
IC50 (cGMP-PDE): 0.01 µM
Inhibition rate of TPA induced inflammation (TPA induced inflammation): 66%
Thickness of ear pinna (×10 μm) [1, 2]: 120.4 ± 5.3 ×10 μm
Thickness of ear pinna (×10 μm) ([1]; 0.3% coated once a day for 2 weeks): 105.0 ± 7.2 ×10 μm
Thickness of ear pinna (×10 μm) ([1]; 1.0% coated once a day for 2 weeks): 64.5 ± 1.6 ×10 μm
Inhibition rate (%) [1, 2]: 12%
Inhibition rate (%) ([1]; 0.3% coated once a day for 2 weeks, * p < 0.01 vs control, Dunnett's test): 23%
Inhibition rate (%) ([1]; 1.0% coated once a day for 2 weeks, * p < 0.01 vs control, Dunnett's test): 53%
IC50 (rat A10 cells): 0.5 µM
IC50 (T cells): 2000 nM
